Reference: patent publication US20250129028A1, “COMPOUNDS AND METHODS FOR YAP/TEAD MODULATION AND INDICATIONS THEREFOR” (Opna Bio SA, priority 2022, published 2025)

Tested on: TEAD-dependent transcription
Experiment: TEAD-dependent transcription cell-based reporter assay (MSTO-211H+12XGTIIC luciferase)
Set-up: species or system human
Conditions: Homo sapiens; MSTO-211H+12XGTIIC cell line, luciferase signal normalized to cell viability, 24 hours compound incubation; read-out: MSTO-211H GMean IC50 (uM) Cell Assay Reporter Cell Variant: TEAD
Method in brief: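 MSTO-211H mesothelioma cells stably carrying a 12xGTIIC TEAD-response-element luciferase reporter, treated with serial compound dilutions for 24 h at 37 °C. Luminescence normalized to CellTiter-Fluor viability signal; % inhibition versus DMSO and 20 μM K-975 controls, IC50 by nonlinear regression.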

SMILES | IC50 [µM]
N=C(N)NCC(=O)N1CCc2ccc(Oc3ccc(C(F)(F)F)cc3)cc2C1 [P-0098, 1-(2-oxo-2-(7-(4-(trifluoromethyl)phen-oxy)-3,4-dihydroiso-quinolin-2(1H)-yl)-ethyl)guanidine] | 0.001 to 10
NC(=O)c1ccc(C(=O)N2CCc3ccc(Oc4ccc(C(F)(F)F)cc4)cc3C2)cn1 [P-0127, 5-(7-(4-(trifluorometh-yl)phenoxy)-1,2,3,4-tetrahydroisoquinoline-2-carbonyl)picolinamide] | 0.001 to 10
CC(=O)N1CCC(c2c(Oc3ccc(C(F)(F)F)cc3)ccc3c2CN(C(=O)CCS(C)(=O)=O)CC3)CC1 [P-0213, 1-(8-(1-acetylpiperidin-4-yl)-7-(4-(trifluorometh-yl)phenoxy)-3,4-dihydro-isoquinolin-2(1H)-yl)-3-(methylsulfonyl)pro-pan-1-one] | 0.001 to 10
NC(=O)CCC(=O)N1CCc2ccc(Oc3ccc(C(F)(F)F)cc3)cc2C1 [P-0039, 4-oxo-4-(7-(4-(trifluoro-methyl)phenoxy)-3,4-dihydroisoquinolin-2(1H)-yl)butanamide] | 0.001 to 10
O=C(C1CC1)N1CCc2ccc(Oc3ccc(C(F)(F)F)cc3)cc2C1 [P-0015, cyclopropyl(7-(4-(trifluoromethyl)phen-oxy)-3,4-dihydroiso-quinolin-2(1H)-yl)-methanone] | 0.001 to 10
